≈ marks a conversion by molar mass, not a printed value.
Key:
[1] = system: Salmonella typhi; experiment: Antibacterial activity against Salmonella typhi MTCC 733 after 14 hrs by serial dilution method; format: functional, Salmonella enterica subsp. enterica serovar Typhi; conditions: Salmonella enterica, MTCC 733, 14 h
[2] = system: Salmonella typhi; experiment: Antibacterial activity against Salmonella typhi MTCC 733 assessed as zone of inhibition at 100 ug/ml after 14 hrs by cup plate method; format: functional, Salmonella enterica subsp. enterica serovar Typhi; conditions: Salmonella enterica, MTCC 733, 14 h; read-out: IZ
[3] = system: Klebsiella pneumoniae; experiment: Antibacterial activity against Klebsiella pneumoniae MTCC 432 after 14 hrs by serial dilution method; format: functional; conditions: MTCC 432, 14 h
[4] = system: Aspergillus niger; experiment: Antifungal activity against Aspergillus niger MTCC 282 after 30 hrs by serial dilution method; format: functional; conditions: MTCC 282, 30 h
[5] = system: Staphylococcus aureus; experiment: Antibacterial activity against Staphylococcus aureus MTCC 096 assessed as zone of inhibition at 100 ug/ml after 14 hrs by cup plate method; format: functional; conditions: MTCC 096, 14 h, read-out: IZ
[6] = system: Aspergillus flavus; experiment: Antifungal activity against Aspergillus flavus MTCC 277 after 30 hrs by serial dilution method; format: functional; conditions: MTCC 277, 30 h
[7] = system: Candida albicans; experiment: Antifungal activity against Candida albicans MTCC 227 assessed as zone of inhibition at 100 ug/ml after 30 hrs by cup plate method; format: functional; conditions: MTCC 227, 30 h, read-out: IZ
[8] = system: Aspergillus niger; experiment: Antifungal activity against Aspergillus niger MTCC 282 assessed as zone of inhibition at 100 ug/ml after 30 hrs by cup plate method; format: functional; conditions: MTCC 282, 30 h, read-out: IZ
[9] = system: Escherichia coli; experiment: Antibacterial activity against Escherichia coli MTCC 443 after 14 hrs by serial dilution method; format: functional; conditions: MTCC 443, 14 h
[10] = system: Aspergillus flavus; experiment: Antifungal activity against Aspergillus flavus MTCC 277 assessed as zone of inhibition at 100 ug/ml after 30 hrs by cup plate method; format: functional; conditions: MTCC 277, 30 h, read-out: IZ
[11] = system: Escherichia coli; experiment: Antibacterial activity against Escherichia coli MTCC 443 assessed as zone of inhibition at 100 ug/ml after 14 hrs by cup plate method; format: functional; conditions: MTCC 443, 14 h, read-out: IZ
[12] = system: Klebsiella pneumoniae; experiment: Antibacterial activity against Klebsiella pneumoniae MTCC 432 assessed as zone of inhibition at 100 ug/ml after 14 hrs by cup plate method; format: functional; conditions: MTCC 432, 14 h, read-out: IZ
[13] = system: Aspergillus fumigatus; experiment: Antifungal activity against Aspergillus fumigatus MTCC 343 assessed as zone of inhibition at 100 ug/ml after 30 hrs by cup plate method; format: functional; conditions: MTCC 343, 30 h, read-out: IZ
[14] = system: Candida albicans; experiment: Antifungal activity against Candida albicans MTCC 227 after 30 hrs by serial dilution method; format: functional; conditions: MTCC 227, 30 h
[15] = system: Staphylococcus aureus; experiment: Antibacterial activity against Staphylococcus aureus MTCC 096 after 14 hrs by serial dilution method; format: functional; conditions: MTCC 096, 14 h
[16] = system: Bacillus subtilis; experiment: Antibacterial activity against Bacillus subtilis MTCC 441 assessed as zone of inhibition at 100 ug/ml after 14 hrs by cup plate method; format: functional; conditions: MTCC 441, 14 h, read-out: IZ
[17] = system: Aspergillus fumigatus; experiment: Antifungal activity against Aspergillus fumigatus MTCC 343 after 30 hrs by serial dilution method; format: functional; conditions: MTCC 343, 30 h
[18] = system: Bacillus subtilis; experiment: Antibacterial activity against Bacillus subtilis MTCC 441 after 14 hrs by serial dilution method; format: functional; conditions: MTCC 441, 14 h

SMILES	MIC [1] [µg/mL]	zone of inhibition at 100 µg/mL [2] [mm]	MIC [3] [µg/mL]	MIC [4] [µg/mL]	zone of inhibition at 100 µg/mL [5] [mm]	MIC [6] [µg/mL]	zone of inhibition at 100 µg/mL [7] [mm]	zone of inhibition at 100 µg/mL [8] [mm]	MIC [9] [µg/mL]	zone of inhibition at 100 µg/mL [10] [mm]	zone of inhibition at 100 µg/mL [11] [mm]	zone of inhibition at 100 µg/mL [12] [mm]	zone of inhibition at 100 µg/mL [13] [mm]	MIC [14] [µg/mL]	MIC [15] [µg/mL]	zone of inhibition at 100 µg/mL [16] [mm]	MIC [17] [µg/mL]	MIC [18] [µg/mL]
O=c1cc(C(F)(F)F)n(C/C=C/CN2CCCC2)c2ccc(F)cc12	25 (≈ 70.6 µM)	< 10	12.5 (≈ 35.3 µM)	12.5 (≈ 35.3 µM)	15	12.5 (≈ 35.3 µM)	15	12	50 (≈ 141 µM)	12	< 10	12	12	6.25 (≈ 17.6 µM)	6.25 (≈ 17.6 µM)	12	12.5 (≈ 35.3 µM)	12.5 (≈ 35.3 µM)
O=c1cc(C(F)(F)F)n(CCCCN2CCCC2)c2ccc(F)cc12	12.5 (≈ 35.1 µM)	12	12.5 (≈ 35.1 µM)	12.5 (≈ 35.1 µM)	14	12.5 (≈ 35.1 µM)	16	12	50 (≈ 140 µM)	12	< 10	13	12	6.25 (≈ 17.5 µM)	6.25 (≈ 17.5 µM)	15	12.5 (≈ 35.1 µM)	6.25 (≈ 17.5 µM)
O=c1cc(C(F)(F)F)n(C/C=C/CN2CCCCC2)c2ccc(F)cc12	25 (≈ 67.9 µM)	< 10	12.5 (≈ 33.9 µM)	6.25 (≈ 17 µM)	13	25 (≈ 67.9 µM)	12	17	50 (≈ 136 µM)	< 10	< 10	12	< 10	12.5 (≈ 33.9 µM)	12.5 (≈ 33.9 µM)	12	25 (≈ 67.9 µM)	12.5 (≈ 33.9 µM)
O=c1cc(C(F)(F)F)n(C/C=C/CN2CCOCC2)c2ccc(F)cc12	50 (≈ 135 µM)	< 10	25 (≈ 67.5 µM)	6.25 (≈ 16.9 µM)	12	25 (≈ 67.5 µM)	15	17	25 (≈ 67.5 µM)	< 10	< 10	< 10	< 10	6.25 (≈ 16.9 µM)	12.5 (≈ 33.8 µM)	14	25 (≈ 67.5 µM)	6.25 (≈ 16.9 µM)
CN1CCN(C/C=C/Cn2c(C(F)(F)F)cc(=O)c3cc(F)ccc32)CC1	12.5 (≈ 32.6 µM)	12	12.5 (≈ 32.6 µM)	12.5 (≈ 32.6 µM)	15	12.5 (≈ 32.6 µM)	15	12	50 (≈ 130 µM)	12	< 10	12	12	6.25 (≈ 16.3 µM)	6.25 (≈ 16.3 µM)	14	12.5 (≈ 32.6 µM)	6.25 (≈ 16.3 µM)
COc1ccc2c(c1)c(=O)cc(C(F)(F)F)n2CCCCN1C(=O)c2ccccc2C1=O	25 (≈ 56.3 µM)	< 10	6.25 (≈ 14.1 µM)	12.5 (≈ 28.1 µM)	16	25 (≈ 56.3 µM)	15	12	50 (≈ 113 µM)	< 10	< 10	16	< 10	6.25 (≈ 14.1 µM)	6.25 (≈ 14.1 µM)	13	25 (≈ 56.3 µM)	12.5 (≈ 28.1 µM)
O=C1c2ccccc2C(=O)N1CCCCOc1cc(C(F)(F)F)nc2ccccc12	25 (≈ 60.3 µM)	< 10	12.5 (≈ 30.2 µM)	6.25 (≈ 15.1 µM)	16	25 (≈ 60.3 µM)	17	17	50 (≈ 121 µM)	< 10	< 10	12	12	6.25 (≈ 15.1 µM)	6.25 (≈ 15.1 µM)	16	12.5 (≈ 30.2 µM)	6.25 (≈ 15.1 µM)
O=C1c2ccccc2C(=O)N1CCCCOc1cc(C(F)(F)F)nc2ccc(F)cc12	12.5 (≈ 28.9 µM)	12	12.5 (≈ 28.9 µM)	6.25 (≈ 14.5 µM)	15	12.5 (≈ 28.9 µM)	15	17	25 (≈ 57.8 µM)	12	< 10	12	12	6.25 (≈ 14.5 µM)	6.25 (≈ 14.5 µM)	15	12.5 (≈ 28.9 µM)	6.25 (≈ 14.5 µM)
Cc1ccc2nc(C(F)(F)F)cc(OCCCCN3C(=O)c4ccccc4C3=O)c2c1	12.5 (≈ 29.2 µM)	12	6.25 (≈ 14.6 µM)	6.25 (≈ 14.6 µM)	15	50 (≈ 117 µM)	15	17	50 (≈ 117 µM)	< 10	< 10	15	12	6.25 (≈ 14.6 µM)	6.25 (≈ 14.6 µM)	15	12.5 (≈ 29.2 µM)	6.25 (≈ 14.6 µM)
O=c1cc(C(F)(F)F)n(CCCCN2CCCCC2)c2ccc(F)cc12	50 (≈ 135 µM)	< 10	12.5 (≈ 33.7 µM)	12.5 (≈ 33.7 µM)	12	12.5 (≈ 33.7 µM)	15	12	50 (≈ 135 µM)	12	< 10	12	< 10	6.25 (≈ 16.9 µM)	12.5 (≈ 33.7 µM)	< 10	25 (≈ 67.5 µM)	25 (≈ 67.5 µM)
O=c1cc(C(F)(F)F)n(CCCCN2CCOCC2)c2ccc(F)cc12	25 (≈ 67.1 µM)	< 10	25 (≈ 67.1 µM)	12.5 (≈ 33.6 µM)	15	25 (≈ 67.1 µM)	15	13	50 (≈ 134 µM)	< 10	< 10	< 10	< 10	6.25 (≈ 16.8 µM)	6.25 (≈ 16.8 µM)	13	25 (≈ 67.1 µM)	12.5 (≈ 33.6 µM)
CN1CCN(CCCCn2c(C(F)(F)F)cc(=O)c3cc(F)ccc32)CC1	50 (≈ 130 µM)	< 10	25 (≈ 64.9 µM)	6.25 (≈ 16.2 µM)	15	25 (≈ 64.9 µM)	12	14	50 (≈ 130 µM)	< 10	< 10	< 10	12	12.5 (≈ 32.4 µM)	6.25 (≈ 16.2 µM)	15	12.5 (≈ 32.4 µM)	6.25 (≈ 16.2 µM)
O=C(O)c1cn(C2CC2)c2cc(N3CCNCC3)c(F)cc2c1=O [CIPROFLOXACIN]		14	6.25 (≈ 18.9 µM)		17						18	18				18		6.25 (≈ 18.9 µM)
Clc1ccc(COC(Cn2ccnc2)c2ccc(Cl)cc2Cl)c(Cl)c1 (stereo unspecified) [MICONAZOLE]				6.25 (≈ 15 µM)		6.25 (≈ 15 µM)	17	17		17			14	6.25 (≈ 15 µM)			12.5 (≈ 30 µM)	

Source: ChEMBL document CHEMBL2380193, “New trifluoromethyl quinolone derivatives: synthesis and investigation of antimicrobial properties” (2013)
